Measured values from PubChem BioAssay (NCI).
Several values for one entry are separate records, joined by “and”; a condition that tells them apart may be missing. Identical values can stand only once.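 Growth conditions: 96-well plates. Treatment: test compound, 48 hours, 5 concentrations. Analysis: linear interpolation between bracketing concentrations; unreached endpoints set to highest concentration. GI50: concentration for 50% inhibition of growth. TGI marks complete inhibition of growth.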 Where a SMILES comes first, the peptide text is derived from it. [ ]: non-standard residue; d: D form. pGlu = O=C1CC[CH](C(=O)O)N1

Key:
Assay in all cases: NCI tumour cell line growth inhibition, 48 h
PC-3 prostate = system: PC-3 prostate
OVCAR-3 ovarian = system: OVCAR-3 ovarian
SN12C renal = system: SN12C renal
K-562 leukemia = system: K-562 leukemia
SK-MEL-28 melanoma = system: SK-MEL-28 melanoma
U251 CNS = system: U251 CNS
SW-620 colon = system: SW-620 colon
MCF7 breast = system: MCF7 breast
NCI/ADR-RES ovarian = system: NCI/ADR-RES ovarian
RPMI-8226 leukemia = system: RPMI-8226 leukemia

| Compound | TGI (PC-3 prostate) [µM] | TGI (OVCAR-3 ovarian) | TGI (SN12C renal) | TGI (K-562 leukemia) | TGI (SK-MEL-28 melanoma) | TGI (U251 CNS) | TGI (SW-620 colon) | TGI (MCF7 breast) | TGI (NCI/ADR-RES ovarian) | TGI (RPMI-8226 leukemia) [µM] | GI50 (PC-3 prostate) [nM] | GI50 (OVCAR-3 ovarian) [µM] | GI50 (SN12C renal) [µM] | GI50 (SK-MEL-28 melanoma) [nM] | GI50 (U251 CNS) [µM] | GI50 (SW-620 colon) [nM] | GI50 (MCF7 breast) [nM] | GI50 (NCI/ADR-RES ovarian) [µM] | GI50 (K-562 leukemia) [nM] | GI50 (RPMI-8226 leukemia) [nM] |
| --- | --- | --- | --- | --- | --- | --- | --- | --- | --- | --- | --- | --- | --- | --- | --- | --- | --- | --- | --- | --- |
| COc1ccc(S(=O)(=O)Nc2ccc(-c3csc(N4C(=O)/C(=C/c5ccccc5)N=C4c4ccccc4)n3)cc2)cc1Cl | > 100 | > 100 µM | > 100 µM | > 100 µM | > 100 µM | 78 µM | > 100 µM | > 100 µM | > 100 µM | – | – | – | – | – | – | – | – | – | – | – |
| C=CC[C@@H]1C=C[C@@H](C(=O)OC)n2c(=O)n(-c3ccccc3)c(=O)n21 | – | > 100 µM | > 100 µM | > 100 µM | > 100 µM | > 100 µM | > 100 µM | > 100 µM | > 100 µM | > 100 | – | – | – | – | – | – | – | – | – | – |
| COc1c(-c2cccs2)oc2c(CC(=O)O)cccc2c1=O | > 100 | > 100 µM | > 100 µM | > 100 µM | – | > 100 µM | – | > 100 µM | – | 5.92 | – | – | – | – | – | – | – | – | – | – |
| COc1ccc(-c2nnc(-c3ccncc3)o2)cc1 | > 100 | > 100 µM | > 100 µM | > 100 µM | > 100 µM | > 100 µM | – | > 100 µM | > 100 µM | > 100 | – | – | – | – | – | – | – | – | – | – |
| O=C(O)CN(CC(=O)O)Cc1ccn(-c2cccc(-n3ccc(CN(CC(=O)O)CC(=O)O)n3)n2)n1 | > 100 | > 100 µM | > 100 µM | – | > 100 µM | > 100 µM | > 100 µM | > 100 µM | > 100 µM | > 100 | – | – | – | – | – | – | – | – | – | – |
| CC(C)(C)c1cc(/C=C/C(=O)CC(=O)/C=C/c2cc(C(C)(C)C)c(O)c(C(C)(C)C)c2)cc(C(C)(C)C)c1O | > 50 | > 50 µM | > 50 µM | – | > 50 µM | > 50 µM | > 50 µM | > 50 µM | > 50 µM | > 50 | – | – | – | – | – | – | – | – | – | – |
| CCCCNC(=S)c1ccc(OC(=O)Nc2ccc(Cl)cc2)cc1 | > 100 | > 100 µM | – | > 100 µM | > 100 µM | > 100 µM | > 100 µM | > 100 µM | > 100 µM | > 100 | – | – | – | – | – | – | – | – | – | – |
| CC1(C)O[C@H]2OC(CO)C(OS(C)(=O)=O)[C@H]2O1 (stereo partly specified) | > 100 | > 100 µM | > 100 µM | – | > 100 µM | > 100 µM | > 100 µM | > 100 µM | > 100 µM | > 100 | – | – | – | – | – | – | – | – | – | – |
| O=C1C2=C(CCCCC2)C2CCCCC12O (stereo unspecified) | – | > 100 µM | > 100 µM | > 100 µM | > 100 µM | > 100 µM | > 100 µM | – | – | > 100 | – | – | – | – | – | – | – | – | – | – |
| COc1ccc2c(c1)CC1(O)COc3cc(OC)ccc3C1O2 (stereo unspecified) | > 100 | > 100 µM | > 100 µM | – | – | > 100 µM | > 100 µM | > 100 µM | > 100 µM | > 100 | – | – | – | – | – | – | – | – | – | – |
| CC(NC(=O)C(Cc1cnc[nH]1)NC(=O)C1CCC(=O)N1)C(N)=O (stereo not drawn) ([pGlu]-His-Ala-NH2; configuration not given here) | > 100 | > 100 µM | > 100 µM | > 100 µM | > 100 µM | > 100 µM | > 100 µM | > 100 µM | – | > 100 | – | – | – | – | – | – | – | – | – | – |
| CC(O)c1cc2c(s1)C(=O)c1scc(C(C)O)c1C2=O (stereo unspecified) | 3.48 | – | 0.44 µM | > 100 µM | 0.62 µM | 4.07 µM | > 100 µM | 3.01 µM | 1.05 µM | 0.626 | – | – | – | – | – | – | – | – | – | – |
| Cc1ccc(C(=O)C2=CN=C3C(=O)N(c4ccccc4)N(C)C3(C)C2=N)cc1 (stereo unspecified) | > 100 | > 100 µM | > 100 µM | > 100 µM | – | > 100 µM | > 100 µM | > 100 µM | > 100 µM | > 100 | – | – | – | – | – | – | – | – | – | – |
| Cn1cc(-c2nc(-c3c[nH]c4ccncc34)cs2)c2cc(F)ccc21 | 3.17 | 3.69 µM | 3.32 µM | – | 3.04 µM | 3.29 µM | 3.4 µM | 2.88 µM | 4.19 µM | – | 1630 | 1.94 | 1.68 | 1630 | 1.8 | 1650 | 1230 | 1.93 | – | – |
| C=C1C(=O)O[C@@H]2OC3(C)CCC4C(C)CCC1C42OO3 (stereo partly specified) | – | 19.6 µM and 10 µM | 16.6 µM and 12.3 µM | 6.76 µM and 18.1 µM | 25.1 µM and 23.9 µM | 21.2 µM and 16.8 µM | 13.6 µM and 10.8 µM | 11.5 µM and 15 µM | 18.6 µM and 6.51 µM | – | – | 7.42 | 4.96 | – | 8.18 | 3440 | 2200 | 4.17 | 2320 | 573 |
| COc1cc2cc3c4c(cc(OC)c(OC)c4c2cc1OC)CCN3C(=O)N(C)C | – | > 100 µM | > 100 µM | > 100 µM | > 100 µM | > 100 µM | > 100 µM | – | – | > 100 | – | – | – | – | – | – | – | – | – | – |
| O=C(Cc1ccccc1)N=Nc1c(O)[nH]c2ccccc12 | > 100 | > 100 µM | > 100 µM | > 100 µM | – | > 100 µM | – | > 100 µM | > 100 µM | – | – | – | – | – | – | – | – | – | – | – |
| COC(=O)[C@@]12OC[C@]34C([C@@H](O)C1O)[C@@]1(C)CC(=O)C(O)=C(C)C1C[C@H]3OC(=O)[C@H](OC(=O)/C=C(/c1ccccc1)C(F)(F)F)[C@H]42 (stereo partly specified) | – | – | > 25 µM | > 25 µM | 15.9 µM | > 25 µM | – | – | – | – | – | – | – | – | – | – | – | – | – | – |
| Cc1cc(C)c2c(=N)c3ccccc3n(CCCCCCn3c4ccccc4c(=N)c4c(C)cc(C)nc43)c2n1 | 2.81 | 3.09 µM | 2.88 µM | > 100 µM | 2.64 µM | 0.387 µM | 0.34 µM | – | – | – | – | – | – | – | – | – | – | – | – | – |
| CCCCCCCC(=O)OCC(C[As](=O)(O)O)OC(=O)CCCCCCC (stereo unspecified) | – | – | 27.9 µM | 81.9 µM | 29.3 µM | 28.2 µM | 29.1 µM | – | – | > 100 | – | – | – | – | – | – | – | – | – | – |
| CC(C)=CCCC1(Sc2ccccc2)C(=O)OCC1C=C(C)C (stereo unspecified) | > 100 | 42.8 µM | 46.1 µM | – | > 100 µM | > 100 µM | > 100 µM | > 100 µM | > 100 µM | 48.1 | – | – | – | – | – | – | – | – | – | – |
| COc1cc(/C=C2\N=C(C)N(n3c(-c4ccccc4)nc4ccccc4c3=O)C2=O)cc(OC)c1OC | > 100 | – | > 100 µM | > 100 µM | > 100 µM | – | > 100 µM | > 100 µM | – | > 100 | – | – | – | – | – | – | – | – | – | – |
